Where a name gives a salt, the structure may show the parent alone.
Target: T1, human HPK1 (MAP4K1) (Homo sapiens, UniProt Q92918)
T1 construct: Recombinant human HPK1 kinase domain was obtained from ThermoFisher (Cat. #PV6357) and SignalChem (Cat. #M23-11G); purchased ThermoFisher; SignalChem PV6357; M23-11G
T1 sequence (Q92918 17-274 limits assumed): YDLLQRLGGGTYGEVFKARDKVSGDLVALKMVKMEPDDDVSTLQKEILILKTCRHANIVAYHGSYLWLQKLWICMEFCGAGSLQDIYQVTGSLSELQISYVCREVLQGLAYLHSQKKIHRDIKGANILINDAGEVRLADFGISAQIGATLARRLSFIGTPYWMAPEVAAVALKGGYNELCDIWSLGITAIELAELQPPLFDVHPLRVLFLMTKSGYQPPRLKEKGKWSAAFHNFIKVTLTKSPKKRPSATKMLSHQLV
Assay: Biochemical assay for activity against HPK1 (ADP-Glo, MBP substrate)
Settings: recombinant human HPK1 kinase domain, 1 nM enzyme, ADP-Glo luminescence
How it was run: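 IC50s come from ADP-Glo luminescence after a 2 h room-temperature reaction phosphorylating MBP in the presence of ATP. Compound was first preincubated 15 min with 1 nM HPK1 kinase domain, human recombinant. Buffer: 50 mM HEPES pH 7.5, 150 mM NaCl, 3 mM TCEP, 10 mM MgCl2, 0.005% Tween-20, 0.01% BSA.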

| Structure (SMILES) | IC50 [nM] |
| --- | --- |
| COc1cc2c(cc1Nc1ncc3cnn([C@H]4C[C@@H](CNC(C)=O)C4)c3n1)CN(C)CC2 [Example 126, N-((cis-3-(6-((6-methoxy-2-methyl-1,2,3,4-tetrahydroisoquinolin-7-yl)amino)-1H-pyrazolo[3,4-d]pyrimidin-1-yl)cyclobutyl)methyl)acetamide] | 100 to 250 |
| COc1cc2c(cc1Nc1ncc3cnn(C[C@H]4CN(C(C)=O)CCO4)c3n1)CN(C)CC2 [Example 127, (R)-1-(2-((6-((6-methoxy-2-methyl-1,2,3,4-tetrahydroisoquinolin-7-yl)amino)-1H-pyrazolo[3,4-d]pyrimidin-1-yl)methyl)morpholino)ethan-1-one trifluoroacetate] | < 100 |
| COc1cc2c(cc1Nc1ncc3cnn(C[C@H]4CN(S(C)(=O)=O)CCO4)c3n1)CN(C)CC2 [Example 128, (S)-6-methoxy-2-methyl-N-(1-((4-(methylsulfonyl)morpholin-2-yl)methyl)-1H-pyrazolo[3,4-d]pyrimidin-6-yl)-1,2,3,4-tetrahydroisoquinolin-7-amine trifluoroacetate] | < 100 |
| COc1cc2c(cc1Nc1ncc3cnn(C[C@@H]4COCCN4C(C)=O)c3n1)CN(C)CC2 [Example 129, (R)-1-(3-((6-((6-methoxy-2-methyl-1,2,3,4-tetrahydroisoquinolin-7-yl)amino)-1H-pyrazolo[3,4-d]pyrimidin-1-yl)methyl)morpholino)ethan-1-one trifluoroacetate] | < 100 |
| COc1cc2c(cc1Nc1ncc3cnn(C[C@@H]4C[C@@H](O)CN4C(C)=O)c3n1)CN(C)CC2 [Example 130, 1-((2S,4R)-4-hydroxy-2-((6-((6-methoxy-2-methyl-1,2,3,4-tetrahydroisoquinolin-7-yl)amino)-1H-pyrazolo[3,4-d]pyrimidin-1-yl)methyl)pyrrolidin-1-yl)ethan-1-one trifluoroacetate] | < 100 |
| COc1cc2c(cc1Nc1ncc3cnn(C[C@H]4[C@@H](O)CCN4C(C)=O)c3n1)CN(C)CC2 [Example 131] | > 251 |
| COc1cc2c(cc1Nc1ncc3c(C)nn([C@H]4C[C@H](CNS(C)(=O)=O)C4)c3n1)CN(C)CC2 [Example 132, N-(((1r,3r)-3-(6-((6-methoxy-2-methyl-1,2,3,4-tetrahydroisoquinolin-7-yl)amino)-3-methyl-1H-pyrazolo[3,4-d]pyrimidin-1-yl)cyclobutyl)methyl)methanesulfonamide] | < 100 |
| COc1cc2c(cc1Nc1ncc3cnn(C[C@@H]4CCN4C(C)=O)c3n1)CN(C)CC2 [Example 133, (S)-1-(2-((6-((6-methoxy-2-methyl-1,2,3,4-tetrahydroisoquinolin-7-yl)amino)-1H-pyrazolo[3,4-d]pyrimidin-1-yl)methyl)azetidin-1-yl)ethan-1-one] | 100 to 250 |
| COc1cc2c(cc1Nc1ncc3cnn(C[C@@H]4CCCCN4C(C)=O)c3n1)CN(C)CC2 [Example 134, (S)-1-(2-((6-((6-methoxy-2-methyl-1,2,3,4-tetrahydroisoquinolin-7-yl)amino)-1H-pyrazolo[3,4-d]pyrimidin-1-yl)methyl)piperidin-1-yl)ethan-1-one] | < 100 |
| COc1cc2c(cc1Nc1ncc3cnn(C[C@]4(C)CCCN4C(C)=O)c3n1)CN(C)CC2 [Example 135, (S)-1-(2-((6-((6-methoxy-2-methyl-1,2,3,4-tetrahydroisoquinolin-7-yl)amino)-1H-pyrazolo[3,4-d]pyrimidin-1-yl)methyl)-2-methylpyrrolidin-1-yl)ethan-1-one] | < 100 |
| COc1cc2c(cc1Nc1ncc3cnn(C[C@@H]4C[C@H](C)CN4C(C)=O)c3n1)CN(C)CC2 [Example 136, 1-((2S,4S)-2-((6-((6-methoxy-2-methyl-1,2,3,4-tetrahydroisoquinolin-7-yl)amino)-1H-pyrazolo[3,4-d]pyrimidin-1-yl)methyl)-4-methylpyrrolidin-1-yl)ethan-1-one] | 100 to 250 |
| COc1cc2c(cc1Nc1ncc3cnn(C[C@@H]4[C@@H]5C[C@@H]5CN4C(C)=O)c3n1)CN(C)CC2 [Example 137, 1-((1R,2S,5S)-2-((6-((6-methoxy-2-methyl-1,2,3,4-tetrahydroisoquinolin-7-yl)amino)-1H-pyrazolo[3,4-d]pyrimidin-1-yl)methyl)-3-azabicyclo[3.1.0]hexan-3-yl)ethan-1-one] | < 100 |
| COc1cc2c(cc1Nc1ncc3cnn(C[C@@H]4C[C@@H](C)CN4C(C)=O)c3n1)CN(C)CC2 [Example 138, 1-((2S,4R)-2-((6-((6-methoxy-2-methyl-1,2,3,4-tetrahydroisoquinolin-7-yl)amino)-1H-pyrazolo[3,4-d]pyrimidin-1-yl)methyl)-4-methylpyrrolidin-1-yl)ethan-1-one] | < 100 |
| CC(=O)N1CCC[C@H]1Cn1ncc2cnc(Nc3ccc4c(c3)CN(C)CC4)nc21 [Example 139, (S)-1-(2-((6-((2-methyl-1,2,3,4-tetrahydroisoquinolin-7-yl)amino)-1H-pyrazolo[3,4-d]pyrimidin-1-yl)methyl)pyrrolidin-1-yl)ethan-1-one] | < 100 |
| COc1cc2c(cc1Nc1ncc3cnn(C[C@@H]4CCCN(C(C)=O)C4)c3n1)CN(C)CC2 [Example 140, 1-[(3R)-3-[[6-[(6-methoxy-2-methyl-3,4-dihydro-1H-isoquinolin-7-yl)amino]pyrazolo[3,4-d]pyrimidin-1-yl]methyl]-1-piperidyl]ethan-1-one] | < 100 |
| COc1cc2c(cc1Nc1ncc3cnn(C[C@@H]4CCCN(S(C)(=O)=O)C4)c3n1)CN(C)CC2 [Example 141, 6-methoxy-2-methyl-N-[1-[[(3S)-1-methylsulfonyl-3-piperidyl]methyl]pyrazolo[3,4-d]pyrimidin-6-yl]-3,4-dihydro-1H-isoquinolin-7-amine] | < 100 |
| COc1cc2c(cc1Nc1ncc3cnn(C[C@H]4CCCN(C(C)=O)C4)c3n1)CN(C)CC2 [Example 142, I-[(3S)-3-[[6-[(6-methoxy-2-methyl-3,4-dihydro-1H-isoquinolin-7-yl)amino]pyrazolo[3,4-d]pyrimidin-1-yl]methyl]-1-piperidyl]ethan-1-one] | < 100 |
| COc1cc2c(cc1Nc1ncc3cnn(C[C@H]4CCCN(S(C)(=O)=O)C4)c3n1)CN(C)CC2 [Example 143, 6-methoxy-2-methyl-N-[1-[[(3R)-1-methylsulfonyl-3-piperidyl]methyl]pyrazolo[3,4-d]pyrimidin-6-yl]-3,4-dihydro-1H-isoquinolin-7-amine] | < 100 |
| COc1cc2c(cc1Nc1ncc3cnn(C[C@@H]4C[C@H](C(F)(F)F)CN4C(C)=O)c3n1)CN(C)CC2 [Example 144, 1-[(2S,4S)-2-[[6-[(6-methoxy-2-methyl-3,4-dihydro-1H-isoquinolin-7-yl)amino]pyrazolo[3,4-d]pyrimidin-1-yl]methyl]-4-(trifluoromethyl)pyrrolidin-1-yl]ethan-1-one] | 100 to 250 |
| COc1cc2c(cc1Nc1ncc3cnn(C[C@@H]4C[C@@H](F)CN4C(C)=O)c3n1)CN(C)CC2 [Example 145, 1-[(2S,4R)-4-fluoro-2-[[6-[(6-methoxy-2-methyl-3,4-dihydro-1H-isoquinolin-7-yl)amino]pyrazolo[3,4-d]pyrimidin-1-yl]methyl]pyrrolidin-1-yl]ethan-1-one] | 100 to 250 |
| COc1cc2c(cc1Nc1ncc3cnn(C[C@@H]4C[C@H](F)CN4C(C)=O)c3n1)CN(C)CC2 [Example 146, 1-[(2S,4S)-4-fluoro-2-[[6-[(6-methoxy-2-methyl-3,4-dihydro-1H-isoquinolin-7-yl)amino]pyrazolo[3,4-d]pyrimidin-1-yl]methyl]pyrrolidin-1-yl]ethan-1-one] | < 100 |
| CN1CCc2ccc(Nc3ncc4cnn(CCS(C)(=O)=O)c4n3)cc2C1 [Example 150, 2-methyl-N-(1-(2-(methylsulfonyl)ethyl)-1H-pyrazolo[3,4-d]pyrimidin-6-yl)-1,2,3,4-tetrahydroisoquinolin-7-amine] | < 100 |
| COc1cc2c(cc1Nc1ncc3cnn(C(C)C(C)(C)C#N)c3n1)CN(C)CC2 (stereo not drawn) [Example 151, 3-(6-((6-methoxy-2-methyl-1,2,3,4-tetrahydroisoquinolin-7-yl)amino)-1H-pyrazolo[3,4-d]pyrimidin-1-yl)-2,2-dimethylbutanenitrile hydrochloride] | < 100 |
| COc1cc2c(cc1Nc1ncc3cnn([C@H]4CC[C@H](O)CC4)c3n1)CNCC2 [Example 152, trans-4-(6-((6-methoxy-1,2,3,4-tetrahydroisoquinolin-7-yl)amino)-1H-pyrazolo[3,4-d]pyrimidin-1-yl)cyclohexan-1-ol] | < 100 |
| COc1cc2c(cc1Nc1ncc3cnn([C@H]4CC[C@H](O)CC4)c3n1)CN(CCF)CC2 [Example 153, trans-4-(6-((2-(2-fluoroethyl)-6-methoxy-1,2,3,4-tetrahydroisoquinolin-7-yl)amino)-1H-pyrazolo[3,4-d]pyrimidin-1-yl)cyclohexan-1-ol] | < 100 |
| COc1cc2c(cc1Nc1ncc3cnn([C@H]4CC[C@H](O)CC4)c3n1)CN(CC(F)F)CC2 [Example 154, trans-4-(6-((2-(2,2-difluoroethyl)-6-methoxy-1,2,3,4-tetrahydroisoquinolin-7-yl)amino)-1H-pyrazolo[3,4-d]pyrimidin-1-yl)cyclohexan-1-ol] | < 100 |
| CCN1CCc2cc(OC)c(Nc3ncc4cnn([C@H]5CC[C@H](O)CC5)c4n3)cc2C1 [Example 155, trans-4-(6-((2-ethyl-6-methoxy-1,2,3,4-tetrahydroisoquinolin-7-yl)amino)-1H-pyrazolo[3,4-d]pyrimidin-1-yl)cyclohexan-1-ol] | < 100 |

— patent US11918582B2 (RAPT Therapeutics, Inc., priority 2021, dated 2024)
